Here are results for two molecules from patent publication US20180071354A1, “SELECTIVE BREEDING METHOD OF ANTITUMOR/ANTICANCER CAMELLIA SINENSIS STRAIN, AND TEA PRODUCT OF SUCH STRAIN” (FUJIAN AGRICULTURE AND FORESTRY UNIVERSITY, priority 2015, published 2018).

In brackets after ≈: the same amount, converted by molar mass.

In assay [1] the test system is human prostate cancer cell line PC-3. Put plainly: In vitro antitumor/anticancer testing (CCK-8), PC-3. It counts as cell-based. The following applies: 48 h. The method, then:
(§1) Each of Tea Product 1 and Conventional Tea Product obtained in section A of this example was used to prepare test tea samples according to the method described below. A proper amount of the respective tea product was added into sterile water to prepare a stock solution with a concentration of 100 mg/mL, followed by using a membrane filter with a pore size of 0.22 μm to conduct vacuum filtration and sterilization. The resulting stock solution was diluted with a respective complete medium shown in Table 3 below to form test tea samples with different concentrations. In other words, the thus obtained test tea samples to be used for treating a respective cancer/tumor cell line shown in Table 3 were prepared using the same complete medium as that for the respective cancer/tumor cell line.
(§2) Specifically, each of the aforesaid commercially available agents was subjected to the method described below to prepare comparative test samples. A proper amount of a respective commercially available agent was dissolved in phosphate-buffered saline (PBS) to prepare a stock solution with a concentration of 5 mg/mL, followed by using a membrane filter with a pore size of 0.22 μm to conduct vacuum filtration and sterilization. The resulting stock solution was diluted with a respective complete medium shown in Table 3 below to form comparative test samples with different concentrations. To be specific, the comparative test samples prepared from the respective commercially available agent have the concentrations shown in Table 2 below. The thus obtained comparative test samples to be used for treating a respective cancer/tumor cell line shown in Table 3 were prepared using the same complete medium as that for the respective cancer/tumor cell line.
(§3) The following cancer/tumor cells purchased from Chinese Academy of Sciences, Shanghai Institutes for Biological Sciences, Institute of Biochemistry and Cell Biology were used for in vitro antitumor/anticancer testing: human liver cancer cell line HepG2, human ovarian cancer cell line SK-OV-3, human cervical cancer cell line Hela, human lung cancer cell line A549, human glioblastoma cell line U-87MG, human mammary gland/duct cancer cell line BT-474, human prostate cancer cell line PC-3, human leukemia cell line HL-60, human gastric cancer cell line SMMC-7721, human colon cancer cell line HCT-116, human squamous cell carcinoma cell line A431, human leukemia cell line K562, human pancreatic cancer cell line PANC-1, and human gastric cancer cell line BGC-823.
(§4) The cultivation of each cancer/tumor cell line is described as follows. The cancer/tumor cancer cells were cultivated in the respective complete medium supplemented with 100 μg/mL penicillin and 100 μg/mL streptomycin in an incubator (37° C., 100% relative humidity, 5% CO2). When adherent cancer/tumor cells reached 80% confluence during the log-phase, cell detachment was conducted using 0.6 mL of 0.3% trypsin. Afterwards, a cell suspension having a cell density of 1.0×10^4 cells/mL was prepared. 100 μL of the cell suspension (i.e. 1000 cancer/tumor cells) was added into wells of a 96-well plate (Cat. No. 3599, Corning Costar), followed by cultivation in an incubator (37° C., 100% relative humidity, 5% CO2) for 24 hours.
(§5) As experimental groups, the tumor/cancer cells of each cell line were treated with the test tea samples prepared from one or more of the tea products and the comparative test samples prepared from one or more of the commercially available agents as obtained in section B of this example (for more detailed information about the tea product(s) and the commercially available product (s) used to treat each cell line, please see Table 4 below). To be specific, 6 to 10 test tea samples prepared from the same tea product and having different concentrations, as well as 6 to 10 comparative test samples prepared from the same commercially available agent and having different concentrations, were utilized to treat the tumor/cancer cells of each cell line. […]

Assay [2] has as its system human liver cancer cell line HepG2. As to the kind of experiment: In vitro antitumor/anticancer testing (CCK-8), HepG2. The format is cell-based. The following applies: 48 h. On the procedure:
as §1, §2, §3, §4, §5

For the molecule `O=C(O[C@@H]1Cc2c(O)cc(O)cc2O[C@@H]1c1cc(O)c(O)c(O)c1)c1cc(O)c(O)c(O)c1` [EGCG monomer, epigallocatechin gallate], the Percent growth inhibition in assay [1] (2.5 μg/mL) was determined as 16.69%; in assay [1] (7 μg/mL), 19.10%; in assay [1] (10 μg/mL) it was 19.64%; in assay [1] (20 μg/mL), 26.03%; in assay [1] (40 μg/mL) it was 40.11%; in assay [1] (80 μg/mL) it was 74.43%. In addition, the Percent growth inhibition in assay [1] (160 μg/mL) came out at 86.71%; in assay [1] (320 μg/mL), 96.31%; in assay [1] (640 μg/mL) it was 92.53%. Moreover, in assay [1] (PC-3), the IC50 result is “IC50 (μg/mL) = 39.51”.

For the molecule `O=c1[nH]cc(F)c(=O)[nH]1` [5-fluorouracil], the inhibition at 0.078125 µg/mL in assay [2] (0.078125 μg/mL, read-out: Percent growth inhibition) came out at 10.9%. The inhibition at 0.15625 µg/mL in assay [2] (0.15625 μg/mL, read-out: Percent growth inhibition) came to 24.5%. Also, the inhibition at 0.3125 µg/mL in assay [2] (0.3125 μg/mL, read-out: Percent growth inhibition) came out at 37.5%. Further, the inhibition at 0.625 µg/mL in assay [2] (0.625 μg/mL, read-out: Percent growth inhibition) came out at 63.7%. In assay [2] (1.25 μg/mL, read-out: Percent growth inhibition), the inhibition at 1.25 µg/mL was 83.3%. Moreover, the inhibition at 2.5 µg/mL in assay [2] (2.5 μg/mL, read-out: Percent growth inhibition) came to 86%. Besides, the inhibition at 5 µg/mL in assay [2] (5 μg/mL, read-out: Percent growth inhibition) was determined as 89.1%. For the same molecule, in assay [2] (Table 5 concentration series), the IC50 is 0.457 µg/mL (≈ 3.52 µM).

What is called inhibition is the share of the control response that was lost under treatment.
